Experimental data taken from the supplement of paper PMC10307832.

Columns and labels:
Assay in all cases: relative viability (nuclei count vs DMSO), 5 days (fraction); higher = more cells survive
[1] = test system: ChaGo-K-1
In short: (§1)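 Nuclei were stained with Hoechst during a one-step fixation (final 0.05% Triton X-100, 1% formaldehyde, 1 ug/ml Hoechst) carried out 5 days after dosing, then counted on 4× images. The cells, lung cancer lines in 1536-well plates, had been dosed by pin tool the day after seeding with one drug alone or a fixed anchor-drug dose plus five library-drug doses (not always all listed) in √10 steps. Relative viability is the nuclei count in treated wells divided by that in vehicle wells, and each value is the median of duplicate plates.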

[2] = test system: EKVX
In short: as §1

[3] = test system: EMC-BAC-2
In short: as §1

[4] = test system: EPLC-272H
In short: as §1

[5] = test system: HCC-78
In short: as §1

[6] = test system: HCC-827
In short: as §1

[7] = test system: LK-2
In short: as §1

[8] = test system: LU99A
In short: as §1

[9] = test system: NCI-H1666
In short: as §1

[10] = test system: NCI-H1975
In short: as §1

[11] = test system: NCI-H2126
In short: as §1

[12] = test system: NCI-H23
In short: as §1

[13] = test system: NCI-H2405
In short: as §1

[14] = test system: NCI-H322M
In short: as §1

[15] = test system: PC-14
In short: as §1

[16] = test system: RERF-LC-KJ
In short: as §1

[17] = test system: SK-LU-1
In short: as §1

[18] = test system: SW 1573
In short: as §1

## Cc1sc2c(c1C)C(c1ccc(Cl)cc1)=N[C@@H](CC(=O)OC(C)(C)C)c1nnc(C)n1-2 [JQ1] + CC1(C)CCC(c2ccc(Cl)cc2)=C(CN2CCN(c3ccc(C(=O)NS(=O)(=O)c4ccc(N[C@H](CCN5CCOCC5)CSc5ccccc5)c(S(=O)(=O)C(F)(F)F)c4)cc3)CC2)C1 [Navitoclax] (partner 0.5 µM)
[1]; first compound 0.04 µM
  relative viability: 1.08
[1]; first compound 0.4 µM
  relative viability: 0.868
[1]; first compound 1.265 µM
  relative viability: 0.405
[1]; first compound 4 µM
  relative viability: 0.481
[2]; first compound 0.04 µM
  relative viability: 0.945
[2]; first compound 0.1265 µM
  relative viability: 0.827
[2]; first compound 0.4 µM
  relative viability: 0.96
[2]; first compound 1.265 µM
  relative viability: 0.802
[2]; first compound 4 µM
  relative viability: 0.685
[3]; first compound 0.04 µM
  relative viability: 1.18
[3]; first compound 0.1265 µM
  relative viability: 1.18
[3]; first compound 0.4 µM
  relative viability: 1.01
[3]; first compound 1.265 µM
  relative viability: 0.61
[3]; first compound 4 µM
  relative viability: 0.658
[4]; first compound 0.04 µM
  relative viability: 1.14
[4]; first compound 0.1265 µM
  relative viability: 0.958
[4]; first compound 0.4 µM
  relative viability: 1.06
[4]; first compound 1.265 µM
  relative viability: 0.462
[4]; first compound 4 µM
  relative viability: 0.321
[5]; first compound 0.04 µM
  relative viability: 0.799
[5]; first compound 0.1265 µM
  relative viability: 0.761
[5]; first compound 0.4 µM
  relative viability: 0.465
[5]; first compound 1.265 µM
  relative viability: 0.285
[5]; first compound 4 µM
  relative viability: 0.242
[6]; first compound 0.04 µM
  relative viability: 0.95
[6]; first compound 0.4 µM
  relative viability: 1.14
[6]; first compound 1.265 µM
  relative viability: 0.94
[6]; first compound 4 µM
  relative viability: 0.689
[7]; first compound 0.04 µM
  relative viability: 0.89
[7]; first compound 0.1265 µM
  relative viability: 0.785
[7]; first compound 0.4 µM
  relative viability: 0.562
[7]; first compound 1.265 µM
  relative viability: 0.255
[7]; first compound 4 µM
  relative viability: 0.243
[8]; first compound 0.04 µM
  relative viability: 0.746
[8]; first compound 0.1265 µM
  relative viability: 0.699
[8]; first compound 0.4 µM
  relative viability: 0.201
[8]; first compound 1.265 µM
  relative viability: 0.137
[8]; first compound 4 µM
  relative viability: 0.146
[9]; first compound 0.04 µM
  relative viability: 0.926
[9]; first compound 0.1265 µM
  relative viability: 0.899
[9]; first compound 0.4 µM
  relative viability: 0.787
[9]; first compound 1.265 µM
  relative viability: 0.438
[9]; first compound 4 µM
  relative viability: 0.513
[10]; first compound 0.04 µM
  relative viability: 1.1
[10]; first compound 0.1265 µM
  relative viability: 0.715
[10]; first compound 0.4 µM
  relative viability: 0.821
[10]; first compound 1.265 µM
  relative viability: 0.336
[10]; first compound 4 µM
  relative viability: 0.266
[11]; first compound 0.04 µM
  relative viability: 0.892
[11]; first compound 0.1265 µM
  relative viability: 0.733
[11]; first compound 0.4 µM
  relative viability: 0.843
[11]; first compound 1.265 µM
  relative viability: 0.578
[11]; first compound 4 µM
  relative viability: 0.555
[12]; first compound 0.04 µM
  relative viability: 0.687
[12]; first compound 0.1265 µM
  relative viability: 0.781
[12]; first compound 0.4 µM
  relative viability: 0.62
[12]; first compound 1.265 µM
  relative viability: 0.395
[12]; first compound 4 µM
  relative viability: 0.144
[13]; first compound 0.04 µM
  relative viability: 0.886
[13]; first compound 0.4 µM
  relative viability: 0.491
[13]; first compound 1.265 µM
  relative viability: 0.136
[13]; first compound 4 µM
  relative viability: 0.117
[14]; first compound 0.04 µM
  relative viability: 1.09
[14]; first compound 0.1265 µM
  relative viability: 1.11
[14]; first compound 0.4 µM
  relative viability: 1.1
[14]; first compound 1.265 µM
  relative viability: 0.692
[14]; first compound 4 µM
  relative viability: 0.608
[15]; first compound 0.04 µM
  relative viability: 0.944
[15]; first compound 0.1265 µM
  relative viability: 0.957
[15]; first compound 0.4 µM
  relative viability: 0.937
[15]; first compound 1.265 µM
  relative viability: 0.672
[15]; first compound 4 µM
  relative viability: 0.303
[16]; first compound 0.04 µM
  relative viability: 0.867
[16]; first compound 0.1265 µM
  relative viability: 1.06
[16]; first compound 0.4 µM
  relative viability: 0.981
[16]; first compound 1.265 µM
  relative viability: 0.275
[16]; first compound 4 µM
  relative viability: 0.33
[17]; first compound 0.04 µM
  relative viability: 0.841
[17]; first compound 0.1265 µM
  relative viability: 0.784
[17]; first compound 0.4 µM
  relative viability: 0.791
[17]; first compound 1.265 µM
  relative viability: 0.0557
[17]; first compound 4 µM
  relative viability: 0.0951
[18]; first compound 0.04 µM
  relative viability: 0.984
[18]; first compound 0.1265 µM
  relative viability: 0.756
[18]; first compound 0.4 µM
  relative viability: 0.827
[18]; first compound 1.265 µM
  relative viability: 0.536
[18]; first compound 4 µM
  relative viability: 0.239

## COc1cc2nccc(Oc3ccc(NC(=O)Nc4cc(C)on4)c(Cl)c3)c2cc1OC [Tivozanib] + CC1(C)CCC(c2ccc(Cl)cc2)=C(CN2CCN(c3ccc(C(=O)NS(=O)(=O)c4ccc(N[C@H](CCN5CCOCC5)CSc5ccccc5)c(S(=O)(=O)C(F)(F)F)c4)cc3)CC2)C1 [Navitoclax] (partner 0.5 µM)
[1]; first compound 0.005 µM
  relative viability: 0.846
[1]; first compound 0.01581 µM
  relative viability: 1.03
[1]; first compound 0.05 µM
  relative viability: 0.802
[1]; first compound 0.1581 µM
  relative viability: 0.645
[1]; first compound 0.5 µM
  relative viability: 0.799
[2]; first compound 0.005 µM
  relative viability: 0.869
[2]; first compound 0.01581 µM
  relative viability: 0.772
[2]; first compound 0.05 µM
  relative viability: 0.982
[2]; first compound 0.1581 µM
  relative viability: 0.793
[2]; first compound 0.5 µM
  relative viability: 0.922
[3]; first compound 0.005 µM
  relative viability: 1.27
[3]; first compound 0.01581 µM
  relative viability: 1.11
[3]; first compound 0.05 µM
  relative viability: 1.21
[3]; first compound 0.1581 µM
  relative viability: 1.14
[3]; first compound 0.5 µM
  relative viability: 1.24
[4]; first compound 0.005 µM
  relative viability: 0.916
[4]; first compound 0.01581 µM
  relative viability: 1.25
[4]; first compound 0.05 µM
  relative viability: 1.34
[4]; first compound 0.1581 µM
  relative viability: 0.967
[4]; first compound 0.5 µM
  relative viability: 0.911
[5]; first compound 0.005 µM
  relative viability: 0.656
[5]; first compound 0.01581 µM
  relative viability: 0.808
[5]; first compound 0.05 µM
  relative viability: 0.765
[5]; first compound 0.1581 µM
  relative viability: 0.756
[5]; first compound 0.5 µM
  relative viability: 0.677
[6]; first compound 0.005 µM
  relative viability: 1.01
[6]; first compound 0.01581 µM
  relative viability: 1.03
[6]; first compound 0.05 µM
  relative viability: 1.02
[6]; first compound 0.1581 µM
  relative viability: 1.05
[6]; first compound 0.5 µM
  relative viability: 1.03
[7]; first compound 0.005 µM
  relative viability: 0.819
[7]; first compound 0.01581 µM
  relative viability: 0.789
[7]; first compound 0.05 µM
  relative viability: 0.952
[7]; first compound 0.1581 µM
  relative viability: 0.802
[7]; first compound 0.5 µM
  relative viability: 0.644
[8]; first compound 0.005 µM
  relative viability: 0.795
[8]; first compound 0.01581 µM
  relative viability: 0.749
[8]; first compound 0.05 µM
  relative viability: 0.849
[8]; first compound 0.5 µM
  relative viability: 0.794
[9]; first compound 0.005 µM
  relative viability: 0.993
[9]; first compound 0.01581 µM
  relative viability: 0.96
[9]; first compound 0.05 µM
  relative viability: 1.02
[9]; first compound 0.1581 µM
  relative viability: 0.891
[9]; first compound 0.5 µM
  relative viability: 0.867
[10]; first compound 0.005 µM
  relative viability: 1.1
[10]; first compound 0.01581 µM
  relative viability: 1.19
[10]; first compound 0.05 µM
  relative viability: 1.09
[10]; first compound 0.1581 µM
  relative viability: 1.06
[10]; first compound 0.5 µM
  relative viability: 0.884
[11]; first compound 0.005 µM
  relative viability: 0.842
[11]; first compound 0.01581 µM
  relative viability: 0.818
[11]; first compound 0.05 µM
  relative viability: 0.963
[11]; first compound 0.1581 µM
  relative viability: 0.635
[11]; first compound 0.5 µM
  relative viability: 0.857
[12]; first compound 0.005 µM
  relative viability: 0.753
[12]; first compound 0.01581 µM
  relative viability: 0.718
[12]; first compound 0.05 µM
  relative viability: 0.92
[12]; first compound 0.1581 µM
  relative viability: 0.652
[12]; first compound 0.5 µM
  relative viability: 0.938
[13]; first compound 0.005 µM
  relative viability: 0.861
[13]; first compound 0.01581 µM
  relative viability: 1.09
[13]; first compound 0.05 µM
  relative viability: 0.74
[13]; first compound 0.1581 µM
  relative viability: 1.02
[13]; first compound 0.5 µM
  relative viability: 0.498
[14]; first compound 0.005 µM
  relative viability: 1.23
[14]; first compound 0.01581 µM
  relative viability: 1.09
[14]; first compound 0.05 µM
  relative viability: 1.28
[14]; first compound 0.1581 µM
  relative viability: 1.22
[14]; first compound 0.5 µM
  relative viability: 1.14
[15]; first compound 0.005 µM
  relative viability: 0.98
[15]; first compound 0.01581 µM
  relative viability: 1.04
[15]; first compound 0.05 µM
  relative viability: 1.11
[15]; first compound 0.1581 µM
  relative viability: 1.07
[15]; first compound 0.5 µM
  relative viability: 1
[16]; first compound 0.005 µM
  relative viability: 0.872
[16]; first compound 0.01581 µM
  relative viability: 0.828
[16]; first compound 0.05 µM
  relative viability: 1.13
[16]; first compound 0.1581 µM
  relative viability: 1.37
[16]; first compound 0.5 µM
  relative viability: 1.07
[17]; first compound 0.005 µM
  relative viability: 0.837
[17]; first compound 0.01581 µM
  relative viability: 0.862
[17]; first compound 0.05 µM
  relative viability: 1.1
[17]; first compound 0.1581 µM
  relative viability: 0.666
[17]; first compound 0.5 µM
  relative viability: 0.806
[18]; first compound 0.005 µM
  relative viability: 0.92
[18]; first compound 0.01581 µM
  relative viability: 0.911
[18]; first compound 0.05 µM
  relative viability: 0.949
[18]; first compound 0.1581 µM
  relative viability: 0.777
[18]; first compound 0.5 µM
  relative viability: 0.983
